# From patent US7026342B2, “Method for treating fibrotic diseases or other indications utilizing thiazole, oxazole and imidazole compounds” (Alteon, Inc., priority 2000, dated 2006)
# Counter-ions that a name gives are not always drawn.
# Tests used:
# [1] = tested on: Rats with left anterior descending coronary artery ligated; assay: Rat myocardial infarct model, left anterior descending coronary artery ligated; type: in vivo; settings: 10 mg/kg intraperitoneal daily for 30 days before ligation and 14 days after
# Protocol: Rats received a daily intraperitoneal dose of 10 mg/kg 3-[2-phenyl-2-oxoethyl]-4,5-dimethyl-thiazolium salt (compound A) (n=14) or placebo (n=15) for 30 days. The animals then underwent a thoracotomy and the left anterior descending coronary artery ligated. The chest was then closed and the animals allowed to recover for 14 days while continuing to be treated with compound A or placebo. The animals were then sacrificed and the hearts removed for histological examination. The weight of the infarcted tissue was 0.16±0.04 g for the placebo treated animals compared to 0.11±0.05 g for the compound A treated animals (p=0.04).
# dog model for diabetes = assay: Dog model for diabetes, ventricular elasticity; type: in vivo
# Excerpt: (§1) Cardiovascular risk correlates more closely with the systolic and the pulse pressure than with the diastolic pressure. In diabetic patients, the cardiovascular risk profile of diabetic patients is strongly correlated to duration of diabetes, glycemic control and blood pressure. Structural matrix proteins contribute to the function of vessels and the heart, and changes in the physical behavior of cardiovascular walls are believed to be important determinants of circulatory function. In elderly individuals, the loss of compliance in the aorta leads to isolated systolic hypertension, which in turn expands the arterial wall and thereby diminishes the dynamic range of elasticity.
# [2] = tested on: elderly patients with pulse pressures greater than 60 mm Hg; assay: Phase IIa clinical trial; type: in vivo, human
# Excerpt: When the heart pumps blood into the vascular system, the ability of the arteries to expand helps to push blood through the body. When arteries become stiff, as they do in the natural process of aging, the ability of the arteries to expand is diminished and also has consequences for the heart. The heart has to work harder to pump the blood into the stiff arteries, and eventually hypertrophies (enlarges in size) to accomplish this. A hypertrophied heart is an inefficient pump, and is one of the disorders that leads to congestive heart failure. […] The potential clinical benefit of this is to lessen the effort that the heart must expend to push blood throughout the body. The effect is also believed to contribute to preventing hypertrophy and subsequent inefficiency of the heart, which inefficiency would contribute to congestive heart failure.
# Atherosclerosis is a disease that involves deposition of blood lipids in plaque in the arteries throughout the body. In coronary arteries, accumulation of plaque progressively leads to reduced coronary flow, with occlusion of the arteries causing focal death of cardiac tissue (myocardial infarction, heart attack). If the amount of tissue that dies is large enough, death ensures. […] Reducing local deposits of plaque should eventually lessen the risk of myocardial infarction and death due to heart attacks.
# Pulse pressure is the difference between systolic and diastolic blood pressure. In a young human, systolic pressure is typically 120 mm Hg and diastolic pressure is 80 mm Hg, resulting in a pulse pressure of 40 mm Hg. With age, in many individuals pulse pressure increases, largely due to the increase in systolic pressure that results from stiff vessel disease. In individuals with pulse pressure greater than 60 mm Hg there is an increased risk of death from cardiovascular morbidities. […] This decrease in pulse pressure was believed to be due primarily to the effect of the agent on lowering the systolic blood pressure.
# cardiovascular tissues = assay: In vivo studies of vascular stiffening and cardiovascular collagen; design: species or system rodents, canines and primates
# Excerpt: as §1
# TGFbeta = assay: In situ hybridization studies, TGFbeta expression
# Excerpt: as §1
# Type IV collagen = assay: In situ hybridization studies, Type IV collagen expression
# Excerpt: as §1
compound,measurement,setting,value
"Cc1sc[n+](CC(=O)c2ccccc2)c1C [compound A, 3-[2-phenyl-2-oxoethyl]-4,5-dimethyl-thiazolium salt]",weight of the infarcted tissue,"[1]; n=14, p=0.04 vs placebo",0.11 ± 0.05 g
same,thickness of the ventricular wall in the infarcted zone,"[1]; n=14, p=0.09 vs placebo",2.56±0.22 mm
same,"end diastolic pressure and end diastolic volume, indicators of ventricular elasticity",dog model for diabetes,returned to a value at about the mid-point between the disease impaired value and the value for control dogs
same,"stiffness of arteries, measured by the ratio of stroke volume (ml) to pulse pressure (mm Hg)",[2]; Phase IIa clinical trial,showed an ability to reverse the stiffness of arteries
same,amount of circulating triglycerides (lipids),[2]; Phase IIa trial,increased the amount of circulating triglycerides
same,pulse pressure,"[2]; Phase IIa trial, elderly patients with pulse pressures greater than 60 mm Hg, statistically significant",reduced pulse pressure
same,mass of collagen in cardiovascular tissues,cardiovascular tissues; in vivo,reduction in the mass of collagen in cardiovascular tissues
same,vascular stiffening,"cardiovascular tissues; in vivo studies in rodents, canines and primates",substantially ameliorating vascular stiffening
same,expression of TGFbeta,TGFbeta,reduces the expression of both Type IV collagen and TGFbeta
same,expression of Type IV collagen,Type IV collagen,reduces the expression of both Type IV collagen and TGFbeta
